According to US20260263471A1, “Methods of Treating Myelofibrosis” (Kartos Therapeutics, Inc., priority 2024, published 2026):
Entries after “also recorded” stand apart in the source; their conditions may differ. Like-named read-outs stand apart in the source and are kept apart here.

Assays:
[1] = system: xenograft models, tumor types harboring TP53WT; assay: Non-clinical xenograft models; type: in vivo; settings: various genetic backgrounds
Excerpt: (§1) Preclinical studies conducted with navtemadlin have yielded promising results in in vitro, ex vivo, and in vivo experiments, representing solid tumors and hematologic malignancies, including MF and acute myeloid leukemia secondary to an MPN.

[2] = system: subjects with MF who were relapsed or refractory to JAK inhibitor treatment; assay: KRT-232-101A Phase 2 open-label dose-finding study, navtemadlin monotherapy; type: in vivo, human; settings: for TSS50 at Week 24 by MFSAF v4.0 (proportion of subjects) / SVR35 at Week 24 by Central Review (proportion of subjects): Rux-relapsed/refractory MF; for TSS50 at Week 24 by MFSAF v4.0 (proportion of subjects): n = 14; for SVR35 at Week 24 by Central Review (proportion of subjects): n = 14 with ruxolitinib washout ≥28 days; for circulating CD34+ cells: single agent
Method: KRT-232-101A is a Phase 2 open-label, dose-finding study designed to evaluate the safety and efficacy of navtemadlin in subjects with MF who were relapsed or refractory to JAK inhibitor treatment. Subjects were treated with one of four dosing schedules to determine the optimal Phase 2 dose and schedule: navtemadlin 120 mg QD for Days 1-7 on a […]; navtemadlin 240 mg QD for Days 1-7 on a 21-day cycle; navtemadlin 240 mg QD for Days 1-7 on a 28-day cycle; or navtemadlin 240 mg QD for Days 1-5 on a 28-day cycle.
Fourteen (14) of these subjects had ruxolitinib washout of ≥28 days prior to the baseline imaging assessment; efficacy results are reported for this subset of patients to control for the effects on the spleen after ruxolitinib discontinuation prior to Cycle 1 Day 1. Median treatment duration for all 32 subjects was 175.5 days (range, 2-469).

[3] = system: treatment-naïve patients with MF; assay: KRT-232-114 Phase 2 open-label study, navtemadlin monotherapy; type: in vivo, human; settings: Rux-naïve MF, 240 mg Days 1-7 of 28-day cycle
Method: KRT-232-114 was a Phase 2 open-label study in which the safety and efficacy of navtemadlin monotherapy was assessed in treatment-naïve patients with MF. […] Median treatment duration was 183.0 days (range, 7-539).

[4] = system: p21 mRNA; assay: p53 pathway activation, non-clinical pharmacology; settings: direct transcriptional target of p53
Excerpt: as §1

[5] = system: p21; assay: p21 expression in MF patient cells; type: cell-based, human; settings: single agent alone
[6] = Standard panel of assays: mutagenicity, genotoxicity, phototoxicity
Excerpt: Repeat-dose toxicity studies of up to 13 weeks duration in rats and monkeys, along with in vitro and in vivo safety pharmacology studies, have been completed for navtemadlin. […] Nonclinical embryofetal toxicity and fertility studies have not been conducted for navtemadlin due to the well documented requirement for p53/MDM2 control during embryonic and fetal development. Based on its mechanism of action, navtemadlin alters cell proliferation and is expected to result in adverse effects on embryofetal viability and development.

[7] = system: JAKi-naive MF patients with a suboptimal response to ruxolitinib; assay: Pooled published phase 3 data, suboptimal responders to ruxolitinib; type: in vivo, human
Excerpt: Data was pooled from published phase 3 studies for patients treated with ruxolitinib in the JAKi-naive MF setting (Verstovsek 2012; Mesa 2017; Pemmaraju 2023; Rampal 2023) to understand the natural history of patients with MF who achieve a suboptimal response to ruxolitinib, as defined in Study KRT-232-115 (e.g., a subject with an SVR>0% but <35% and a TSS reduction >0% but <50%) (FIG. 12).
FIG. 12 illustrates suboptimal spleen and symptom responders from the pooled phase 3 ruxolitinib data, including patients treated with ruxolitinib monotherapy with and without placebo. SVR data was obtained for 465 subjects from the three studies COMFORT-1, […]-1, and TRANSFORM-1 (Verstovsek 2012; Mesa 2017; Pemmaraju 2023). TSS data was obtained for 528 subjects from the three studies. Week-24 data used as a proxy to Week-18 suboptimal response assessment.

[8] = system: ruxolitinib-treated patients with myelofibrosis; settings: cited from earlier work
[9] = system: MF patients; settings: cited from earlier work
[10] = system: patients who discontinue ruxolitinib; settings: after discontinuing ruxolitinib; 95% CI 8.0-22.7; cited from earlier work
[11] = KRT-232-101A, 240 mg Days 1-7 of 28-day cycle
[12] = KRT-232-101A, 240 mg Days 1-7 of 28-day cycle, listed as Navtemadlin
[13] = within the first 1-2 years of treatment

**Q.** Which results are given for `CC(C)[C@@H](CS(=O)(=O)C(C)C)N1C(=O)[C@@](C)(CC(=O)O)C[C@H](c2cccc(Cl)c2)[C@H]1c1ccc(Cl)cc1` [navtemadlin, 2-((3R,5R,6S)-5-(3-chlorophenyl)-6-(4-chlorophenyl)-1-((S)-1-(isopropylsulfonyl)-3-methylbutan-2-yl)-3-methyl-2-oxopiperidin-3-yl) acetic acid]?
**A.** tumor growth [1]: dose-dependent reduction; TSS50 at Week 24 by MFSAF v4.0 (proportion of subjects) [2, 11]: 14.3%; TSS50 at Week 24 by MFSAF v4.0 (proportion of subjects) [2, 12]: 14.3% (2/14); SVR35 at Week 24 by Central Review (proportion of subjects) [2, 11]: 14.3%; SVR35 at Week 24 by Central Review (proportion of subjects) [2, 12]: 14.3% (2/14); median reduction in circulating CD34+ cells ([2]; baseline Cycle 1 Day 1 to Week 24, 240 mg Days 1-7 of 28-day cycle): 89.02%; subjects with improvement in fibrosis grade ([2]; baseline to Week 24, all evaluable subjects (12/44)): 27.3%; driver gene VAF ([2]; pharmacodynamic analysis, KRT-232-101A): VAF reductions; circulating CD34+ cells ([2]; KRT-232-101A): robustly decreased; also recorded: reduced; circulating CD34+ cells ([2]; KRT-232-101A, listed as Navtemadlin): decreased; SVR35 at Week 24 by Central Review (proportion of subjects) ([3]; n = 14): 14.3%; TSS50 at Week 24 by MFSAF v4.0 (proportion of subjects) ([3]; n = 14): 28.6%; SVR35 at Week 24 by Central Review (proportion of subjects) ([3]; n = 14, listed as Navtemadlin): 14.3% (2/14); TSS50 at Week 24 by MFSAF v4.0 (proportion of subjects) ([3]; n = 14, listed as Navtemadlin): 28.6% (4/14); p21 mRNA [4]: increases; p21 expression [5]: markedly increased; mutagenicity / genotoxicity [6]: not mutagenic or genotoxic; potential for phototoxicity [6]: negligible potential

**Q.** For `N#CC[C@H](C1CCCC1)n1cc(-c2ncnc3[nH]ccc23)cn1` [ruxolitinib, (R)-3-(4-(7H-pyrrolo[2,3-d]pyrimidin-4-yl)-1H-pyrazol-1-yl)-3-cyclopentylpropanenitrile], which “mean SVR” value ([7]; suboptimal spleen responders, N=253, Week-24 data as proxy for Week 18) is on record?
**A.** 18%

**Q.** What about the “mean TSS reduction” value ([7]; suboptimal symptom responders (>0% but <50%)) of the same compound?
**A.** 28.5%

**Q.** And the “hazard ratio for survival” value ([8]; patients with SVR≥25% to <35% versus SVR<10%, 95% CI 0.11-0.61)?
**A.** 0.25

**Q.** And the “reduction in risk of death” value ([8]; patients with SVR≥25% to <35% versus SVR<10%)?
**A.** 75%

**Q.** And the “hazard ratio for survival” value ([8]; patients with SVR≥35% to <50%, 95% CI 0.11-0.56)?
**A.** 0.24

**Q.** What about the “time after initiating treatment by which benefit in SVR and TSS reduction is achieved, then plateau” value ([9]; Verstovsek 2012) of the same compound?
**A.** ≤ 12 weeks

**Q.** And the “MF patients with TSS reduction of greater than or equal to 50%” value ([9]; ruxolitinib monotherapy)?
**A.** approximately 46%

**Q.** What about the “responding patients achieving both SVR ≥35% and TSS ≥50%” value ([9]; ruxolitinib monotherapy) of the same compound?
**A.** 20-25%

**Q.** And the “effect on bone marrow fibrosis” value [9, 13]?
**A.** does not significantly affect

**Q.** What about the “effect on variant allele frequency (VAF) of driver mutations” value [9, 13] of the same compound?
**A.** does not significantly affect

**Q.** And the p21 expression [5]?
**A.** did not

**Q.** And the “median OS” value [10]?
**A.** 13.2 months
